Experiment [1] addresses T1, ICE (Homo sapiens, UniProt P29466).
T1 sequence (P29466 120-297 limits assumed): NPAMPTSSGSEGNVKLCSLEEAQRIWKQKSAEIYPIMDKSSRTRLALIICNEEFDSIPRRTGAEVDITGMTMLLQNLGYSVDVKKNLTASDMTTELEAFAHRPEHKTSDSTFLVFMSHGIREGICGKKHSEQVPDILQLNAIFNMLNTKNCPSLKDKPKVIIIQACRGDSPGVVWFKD
T1 sequence (P29466 317-404 limits assumed): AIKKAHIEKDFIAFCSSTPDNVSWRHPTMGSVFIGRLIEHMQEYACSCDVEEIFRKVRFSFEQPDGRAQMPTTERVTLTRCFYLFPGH
Briefly: ICE inhibition, Ki determination (fluorogenic substrate Ac-Tyr-Val-Ala-Asp-AMC). The experiment is classed as biochemical. The conditions noted are these: 15 µM Ac-Tyr-Val-Ala-Asp-AMC, 0.5 nM enzyme, 30°C, reversible competitive model.

Experiment [2] has as its target T1, ICE. As to the kind of experiment: ICE Colorimetric Dose-Response (IC50) Assay. The following applies: 60 minutes preincubation, 50 µM Ac-Tyr-Val-Ala-Asp-pNA, 25°C. The experiment is classed as biochemical. The procedure, abridged:
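Human ICE (~24 nM in HGE buffer, pH 7.5, activated with 5 mM DTT) preincubated 60 min at ambient temperature with two-fold serial inhibitor dilutions, in triplicate. Ac-Tyr-Val-Ala-Asp-pNA added at 50 µM; A405 followed for 1 h at 25°C starting 5 min after substrate, activity taken as mean rate.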

Experiment [3] concerns IL-1β production in human peripheral blood mononuclear cells (PBMCs). As to the kind of experiment: PBMC Cellular Assay - IC50 Determinations (LPS-stimulated IL-1β production, ELISA). The experiment is classed as cell-based. The conditions noted are these: human PBMCs stimulated overnight with 10 ng/mL LPS, mature IL-1β by ELISA. The procedure, abridged:
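Ficoll-isolated human PBMCs (10^6/well, RPMI with 2% human AB serum) were stimulated overnight with LPS 10 ng/mL (E. coli 0111:B4) with or without compound. Mature IL-1β in medium measured by ELISA; viability checked by MTT over a further 4 h.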
On the technique in general: An ELISA detects its analyte on a solid surface through an enzyme-linked reagent.

Experiment [4] addresses T2, Ich-2 enzyme (Homo sapiens, UniProt P49662).
T2 sequence (P49662 81-270 limits assumed): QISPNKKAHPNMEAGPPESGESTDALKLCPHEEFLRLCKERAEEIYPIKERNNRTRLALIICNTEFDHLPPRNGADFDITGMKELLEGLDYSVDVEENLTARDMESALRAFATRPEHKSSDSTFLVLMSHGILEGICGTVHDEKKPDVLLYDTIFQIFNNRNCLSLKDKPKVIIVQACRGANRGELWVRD
T2 sequence (P49662 290-377 limits assumed): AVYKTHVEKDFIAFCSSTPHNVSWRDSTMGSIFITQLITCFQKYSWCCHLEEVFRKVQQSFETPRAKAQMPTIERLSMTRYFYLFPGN
Briefly: Ich-2 Colorimetric Dose-Response (IC50) Assay. The conditions noted are these: enzyme 64 nM, 60 µM Ac-Leu-Glu-Val-Asp-pNA; read-out: ICH2 IC50 (Caspase 4). The experiment is classed as biochemical. As for the experimental part:
Diluted inhibitor stocks are prepared by two-fold serial dilution from a primary stock whose concentration is selected (based on screening results or on prior attempts at IC50 evaluation) to achieve approximately 95% inhibition in the most concentrated well. Aliquots of each dilution are transferred to a microtitre plate in triplicate.
ICE enzyme is diluted to approximately 24 nM in HGE buffer (100 mM Hepes pH 7.5, 0.5 mM EDTA, 20% glycerol, 0.1% Bovine Serum Albumin (BSA), and activated by adding dithiothreitol (DTT) to a final concentration of 5 mM. The activated enzyme is then aliquoted into wells containing inhibitor or vehicle, and the plate is preincubated for 60 minutes at ambient temperature. Substrate (Ac-Tyr-Val-Ala-Asp-pNA) is added to each well to a final concentration of 50 µM, and plates are placed in the microtitre plate-reader thermostated to 25°C. Beginning 5 minutes after addition of substrate, absorbance (405 nm) of wells is monitored for 1 hour, and activity is calculated as the mean rate of change in absorbance during this interval.
Inhibition of Ich-2 enzyme is assayed as described above for ICE, except that enzyme is used at 64 nM, and 60 µM of the Ich-2-specific substrate Ac-Leu-Glu-Val-Asp-pNA is used instead of the ICE substrate Ac-Tyr-Val-Ala-Asp-pNA.

The Ki is a dissociation constant, usually derived from enzyme kinetics or from competition with a known ligand. High values mean weaker binding, low ones tighter binding. Broadly, the IC50 is the midpoint of a concentration-inhibition curve.

In the case of `CC(C)C(CC(=O)NCCCc1ccncc1)C(=O)NC(CC(=O)O)C(=O)CNS(=O)(=O)CC12CCC(CC1=O)C2(C)C` (stereo not drawn) [Example 26, 5-(7,7-Dimethyl-2-oxo-bicyclo[2.2.1]hept-1-ylmethanesulfonylamino)-3-{3-methyl-2-[(3-pyridin-4-yl-propylcarbamoyl)-methyl]-butyrylamino}-4-oxo-pentanoic acid], the Ki in experiment [1] came out at 26.6 nM. For the same molecule, the values for the IC50 in experiment [2], in experiment [3] and in experiment [4] were 136 nM, 2000 nM and 9910 nM, respectively.

In the case of `CC(C)C(CC(=O)NCCCc1ccc2ccccc2n1)C(=O)NC(CC(=O)O)C(=O)CNS(=O)(=O)CC12CCC(CC1=O)C2(C)C` (stereo not drawn) [Example 27, 5-(7,7-Dimethyl-2-oxo-bicyclo[2.2.1]hept-1-ylmethanesulfonylamino)-3-{3-methyl-2-[(3-quinolin-2-yl-propylcarbamoyl)-methyl]-butyrylamino}-4-oxo-pentanoic acid], the Ki in experiment [1] amounted to 17.5 nM. The IC50 in experiment [2] worked out at 147 nM; in experiment [3] it was 1000 nM; in experiment [4] it was 9930 nM.

For the molecule `CC(C)C(CC(=O)NCCCc1cccc2ccccc12)C(=O)NC(CC(=O)O)C(=O)CNS(=O)(=O)CC12CCC(CC1=O)C2(C)C` (stereo not drawn) [Example 28, 5-(7,7-Dimethyl-2-oxo-bicyclo[2.2.1]hept-1-ylmethanesulfonylamino)-3-{3-methyl-2-[(3-naphthalen-1-yl-propylcarbamoyl)-methyl]-butyrylamino}-4-oxo-pentanoic acid], the inhibition constant Ki in experiment [1] turned out to be 6.1 nM. In addition, the IC50 came to 254 nM in experiment [2], 550 nM in experiment [3] and 5580 nM in experiment [4].

On to `CC(C)C(CC(=O)NCCCc1cccnc1)C(=O)NC(CC(=O)O)C(=O)CNS(=O)(=O)CC12CCC(CC1=O)C2(C)C` (stereo not drawn) [Example 29, 5-(7,7-Dimethyl-2-oxo-bicyclo[2.2.1]hept-1-ylmethanesulfonylamino)-3-{3-methyl-2-[(3-pyridin-3-yl-propylcarbamoyl)-methyl]-butyrylamino}-4-oxo-pentanoic acid], for which the Ki in experiment [1] came out at 24.5 nM. Moreover, the IC50 amounted to 113 nM in experiment [2], 1900 nM in experiment [3] and 4790 nM in experiment [4].

For the molecule `CC(C)C(CC(=O)NCCn1cnc2ccccc21)C(=O)NC(CC(=O)O)C(=O)CNS(=O)(=O)CC12CCC(CC1=O)C2(C)C` (stereo not drawn) [Example 30, 3-{2-[(2-Benzoimidazol-1-yl-ethylcarbamoyl)-methyl]-3-methyl-butyrylamino}-5-(7,7-dimethyl-2-oxo-bicyclo[2.2.1]hept-1-ylmethanesulfonylamino)-4-oxo-pentanoic acid], the inhibition constant (Ki) in experiment [1] was found to be 1.1 nM. Besides, the IC50 in experiment [2] was determined as 5.2 nM; in experiment [3] it was 410 nM; in experiment [4] it was 3140 nM.

`CC(C)C(CC(=O)NCCc1cn(C)c2ccccc12)C(=O)NC(CC(=O)O)C(=O)CNS(=O)(=O)CC12CCC(CC1=O)C2(C)C` (stereo not drawn) [Example 31, 5-(7,7-Dimethyl-2-oxo-bicyclo[2.2.1]hept-1-ylmethanesulfonylamino)-3-(3-methyl-2-{[2-(1-methyl-1H-indol-3-yl)-ethylcarbamoyl]-methyl}-butyrylamino)-4-oxo-pentanoic acid]: the Ki in experiment [1] is 0.4 nM. The values for the IC50 in experiment [2], in experiment [3] and in experiment [4] were 5.9 nM, 240 nM and 1240 nM, respectively.

Molecule `CC(C)C(CC(=O)NCCc1ccncc1)C(=O)NC(CC(=O)O)C(=O)CNS(=O)(=O)CC12CCC(CC1=O)C2(C)C` (stereo not drawn) [Example 32, 5-(7,7-Dimethyl-2-oxo-bicyclo[2.2.1]hept-1-ylmethanesulfonylamino)-3-{3-methyl-2-[(2-pyridin-4-yl-ethylcarbamoyl)-methyl]-butyrylamino}-4-oxo-pentanoic acid] gave a Ki in experiment [1] of 26 nM. Also, the results for the IC50 in experiment [2], in experiment [3] and in experiment [4] were 458 nM, 3300 nM and 14100 nM, respectively.

In turn, `CC(=O)c1ccc2[nH]cc(CCNC(=O)CC(C(=O)NC(CC(=O)O)C(=O)CNS(=O)(=O)CC34CCC(CC3=O)C4(C)C)C(C)C)c2c1` (stereo not drawn) [Example 33, 3-(2-{[2-(5-Acetyl-1H-indol-3-yl)-ethylcarbamoyl]-methyl}-3-methyl-butyrylamino)-5-(7,7-dimethyl-2-oxo-bicyclo[2.2.1]hept-1-ylmethanesulfonylamino)-4-oxo-pentanoic acid] showed a Ki in experiment [1] of 6.5 nM. For the same molecule, the IC50 is 23 nM in experiment [2], 1600 nM in experiment [3] and 3090 nM in experiment [4].

Regarding `CC(C)C(CC(=O)NCCc1nnn[nH]1)C(=O)NC(CC(=O)O)C(=O)CNS(=O)(=O)CC12CCC(CC1=O)C2(C)C` (stereo not drawn) [Example 34, 5-(7,7-Dimethyl-2-oxo-bicyclo[2.2.1]hept-1-ylmethanesulfonylamino)-3-(3-methyl-2-{[2-(1H-tetrazol-5-yl)-ethylcarbamoyl]-methyl}-butyrylamino)-4-oxo-pentanoic acid], the Ki in experiment [1] turned out to be 16.6 nM. Moreover, the figures for the IC50 in experiment [2], in experiment [3] and in experiment [4] were 115 nM, 2600 nM and 1100 nM, respectively.

In experiment [1], `CCOC1OC(=O)CC1NC(=O)C(CC(=O)NCCc1c[nH]c2ccccc12)C(C)C` (stereo not drawn) [Example 36, N^1-(2-Ethoxy-5-oxo-tetrahydro-furan-3-yl)-N^4-[2-(1H-indol-3-yl)-ethyl]-2-isopropyl-succinamide] came in with a Ki of 630 nM. Further, the figures for the IC50 in experiment [2], in experiment [3] and in experiment [4] were 599 nM, 1300 nM and 101000 nM, respectively.

As for `CCOC1OC(=O)CC1NC(=O)C(CC(=O)NCCc1cn(C)c2ccccc12)C(C)C` (stereo not drawn) [Example 37, N^1-(2-Ethoxy-5-oxo-tetrahydro-furan-3-yl)-2-isopropyl-N^4-[2-(1-methyl-1H-indol-3-yl)-ethyl]-succinamide], in experiment [1], the Ki is 29.7 nM. Also, the IC50 was 581 nM in experiment [2], 2000 nM in experiment [3] and 128000 nM in experiment [4].

`CCOC1OC(=O)CC1NC(=O)[C@@H](CC(=O)NCCn1cnc2cc(Cl)c(Cl)cc21)C(C)C` (stereo partly drawn) [Example 38, N^4-[2-(5,6-Dichloro-benzoimidazol-1-yl)-ethyl]-N^1-(2-ethoxy-5-oxo-tetrahydro-furan-3-yl)-2-isopropyl-succinamide] showed a Ki in experiment [1] of 16.4 nM. For the same molecule, the IC50 in experiment [2] amounted to 377 nM; in experiment [3], 3400 nM; in experiment [4], 18700 nM.

Take `CCOC1OC(=O)CC1NC(=O)C(CC(=O)NCCc1c[nH]c2c(C)cccc12)C(C)C` (stereo not drawn) [Example 45, N^1-(2-Ethoxy-5-oxo-tetrahydro-furan-3-yl)-N^4-[2-(7-methyl-1H-indol-3-yl)-ethyl]-2-isopropyl-succinamide]: the affinity in experiment [1], expressed as Ki, was 37 nM. The IC50 worked out at 750 nM in experiment [2], 2600 nM in experiment [3] and 174000 nM in experiment [4].

`CCOC1OC(=O)CC1NC(=O)C(CC(=O)NCCn1c(C)nc2ccccc21)C(C)C` (stereo not drawn) [Example 46, N^1-(2-ethoxy-5-oxotetrahydro-furan-3-yl)-2-isopropyl-N^4-[2-(2-methyl-benzoimidazol-1-yl)-ethyl]-succinamide] returned a Ki in experiment [1] of 28.4 nM. The concentration for half-maximal inhibition (IC50) in experiment [2] was determined as 438 nM; in experiment [3], 6500 nM; in experiment [4], 367000 nM.

In experiment [1], `CC(C)C(CC(=O)NCCn1cnc2ccccc21)C(=O)NC(C=O)CC(=O)O` (stereo not drawn) [Example 53, 3-{2-[(2-Benzoimidazol-1-yl-ethylcarbamoyl)-methyl]-3-methyl-butyrylamino}-4-oxo-butyric acid] came in with a Ki of 20 nM. Moreover, the IC50 came to 73.7 nM in experiment [2], 8300 nM in experiment [3] and 32500 nM in experiment [4].

The record behind these values is patent EP1082127B1 (WARNER-LAMBERT COMPANY LLC, priority 1998, dated 1999).
